Test results from ChEMBL document CHEMBL4311992, “Discovery of 3-(((9H-purin-6-yl)amino)methyl)-4,6-dimethylpyridin-2(1H)-one derivatives as novel tubulin polymerization inhibitors for treatment of cancer” (Eur J Med Chem, 2019).
Calls of active or inactive are those of the source. No cut-off for these calls is given here.

Tests used:
SW-620 [1] = assay: Inhibition of colony formation in human SW620 cells at 50 nM after 14 days by crystal violet staining-based microscopic analysis; assay type: functional; settings: SW-620, 336 h
[2] = test system: TGF-beta receptor type-1 (Homo sapiens), P36897 [T204D]; assay: Inhibition of human TGFBR1 T204D mutant (200 to end residues) using casein as substrate measured after 40 mins in presence of [gamma33P]ATP by scintillation counting method; set-up: scale not given: the % may be the effect or the level left
[3] = target: Serine/threonine-protein kinase SIK3 (Homo sapiens) (UniProt Q9Y2K2); assay: Inhibition of human SIK3 (1 to 307 residues) using KKKVSRSGLYRSPSMPENLNRPR as substrate measured after 40 mins in presence of [gamma33P]ATP by scintillation counting method; set-up: scale not given: the % may be the effect or the level left
[4] = target: Ribosomal protein S6 kinase alpha-2 (Homo sapiens) (UniProt Q15349); assay: Inhibition of recombinant full-length human Rsk3 assessed as residual activity at 10 uM using KKKNRTLSVA as substrate measured after 40 mins in presence of [gamma33P]ATP by scintillation counting method
[5] = target: Protein kinase C alpha type (Homo sapiens) (UniProt P17252); assay: Inhibition of recombinant full-length human PKCalpha assessed as residual activity at 10 uM using histone H1 as substrate measured after 40 mins in presence of [gamma33P]ATP by scintillation counting method
[6] = target: Serine/threonine-protein kinase Nek9 (Homo sapiens) (UniProt Q8TD19); assay: Inhibition of recombinant human NEK9 (1 to 324 residues) assessed as residual activity at 10 uM using myelin basic protein as substrate measured after 40 mins in presence of [gamma33P]ATP by scintillation counting method
[7] = target: FKBP12A/mTOR (Homo sapiens) (UniProt P62942+P42345); assay: Inhibition of recombinant full-length human mTOR/FKBP12 assessed as residual activity at 10 uM measured after 40 mins in presence of [gamma33P]ATP by scintillation counting method; assay type: protein-complex assay
Homo sapiens = species: Homo sapiens; assay: Inhibition of recombinant human MARK1 T20S mutant (2 to end residues) assessed as residual activity at 10 uM using KKKVSRSGLYRSPSMPENLNRPR as substrate measured after 40 mins in presence of [gamma33P]ATP by scintillation counting method
[8] = target: Cyclin-dependent kinase-like 2 (Homo sapiens) (UniProt Q92772); assay: Inhibition of human CDKL2 assessed as residual activity at 10 uM by radiometric method
[9] = target: Tau-tubulin kinase 1 (Homo sapiens) (UniProt Q5TCY1); assay: Inhibition of human TTBK1 (1 to 479 residues) using Casein as substrate measured after 40 mins in presence of [gamma33P]ATP by scintillation counting method; set-up: scale not given: the % may be the effect or the level left
[10] = target: Mitogen-activated protein kinase kinase kinase 5 (Homo sapiens) (UniProt Q99683); assay: Inhibition of recombinant human ASK1 (649 to 946 residues) assessed as residual activity at 10 uM using myelin basic protein as substrate measured after 40 mins in presence of [gamma33P]ATP by scintillation counting method
[11] = target: Homeodomain-interacting protein kinase 3 (Homo sapiens) (UniProt Q9H422); assay: Inhibition of recombinant human HIPK3 (161 to 562 residues) assessed as residual activity at 10 uM using myelin basic protein as substrate measured after 40 mins in presence of [gamma33P]ATP by scintillation counting method
[12] = target: Ephrin type-A receptor 5 (Homo sapiens) (UniProt P54756); assay: Inhibition of recombinant human EphA5 (655 to 956 residues) assessed as residual activity at 10 uM using poly(Glu, Tyr) 4:1 as substrate measured after 40 mins in presence of [gamma33P]ATP by scintillation counting method
[13] = test system: Tyrosine-protein kinase ABL1 (Homo sapiens), P00519 [Y253F]; assay: Inhibition of recombinant human ABL Y253F mutant (27 to end residues) assessed as residual activity at 10 uM using EAIYAAPFAKKK as substrate measured after 40 mins in presence of [gamma33P]ATP by scintillation counting method
HCT-116 [14] = assay: Cell cycle arrest in human HCT116 cells assessed as up regulation of CDK1 expression up to 150 nM after 24 hrs by Western blot analysis; assay type: functional, cell-based
[15] = Toxicity in nude BALB/c mouse assessed as change in WBC level at 40 to 80 mg/kg, po once daily for 4 weeks measured post-last dose; assay type: organism-based; settings: in vivo, 672 h
[16] = target: Serine/threonine-protein kinase 4 (Homo sapiens) (UniProt Q13043); assay: Inhibition of recombinant full-length human MST1 assessed as residual activity at 10 uM using KKSRGDYMTMQIG as substrate measured after 40 mins in presence of [gamma33P]ATP by scintillation counting method
[17] = target: Eukaryotic translation initiation factor 2-alpha kinase 3 (Homo sapiens) (UniProt Q9NZJ5); assay: Inhibition of recombinant human PEK (536 to end residues) assessed as residual activity at 10 uM using RSRSRSRSRSRSRSR as substrate measured after 40 mins in presence of [gamma33P]ATP by scintillation counting method
[18] = test system: Proto-oncogene tyrosine-protein kinase receptor Ret (Homo sapiens), P07949 [V804M]; assay: Inhibition of human Ret V804M mutant (658 to end residues) using […] as substrate measured after 40 mins in presence of [gamma33P]ATP by scintillation counting method; set-up: scale not given: the % may be the effect or the level left
[19] = target: Serine/threonine-protein kinase WNK2 (Homo sapiens) (UniProt Q9Y3S1); assay: Inhibition of human WNK2 (166 to 489 residues) using myelin basic protein as substrate measured after 40 mins in presence of [gamma33P]ATP by scintillation counting method; set-up: scale not given: the % may be the effect or the level left
[20] = target: Serine/threonine-protein kinase WNK4 (Homo sapiens) (UniProt Q96J92); assay: Inhibition of human WNK4 using myelin basic protein as substrate measured after 120 mins in presence of [gamma33P]ATP by scintillation counting method; set-up: scale not given: the % may be the effect or the level left
[21] = target: Tyrosine-protein kinase Yes (Homo sapiens) (UniProt P07947); assay: Inhibition of recombinant full-length human Yes assessed as residual activity at 10 uM using poly(Glu, Tyr) 4:1 as substrate measured after 40 mins in presence of [gamma33P]ATP by scintillation counting method
[22] = target: PI3K p110 beta/p85 alpha (Homo sapiens) (UniProt P27986+P42338); assay: Inhibition of recombinant full-length human PI3K p110beta/p85alpha assessed as residual activity at 10 uM using phosphatidylinositol-4, 5-bisphosphate as substrate measured after 40 mins by fluorescence assay; assay type: protein-complex assay
[23] = Toxicity in nude BALB/c mouse assessed as change in cholesterol level at 40 to 80 mg/kg, po once daily for 4 weeks measured post-last dose; assay type: organism-based; settings: in vivo, 672 h
SW-620 [24] = assay: Induction of apoptosis in human SW620 cells assessed as late apoptotic cells at 50 nM measured after 48 hrs by Annexin V-FITC/propidium iodide staining-based flow cytometry (reference value: 1.8%); assay type: functional
HCT-116 [25] = assay: Induction of apoptosis in human HCT116 cells assessed as late apoptotic cells at 50 nM measured after 48 hrs by Annexin V-FITC/propidium iodide staining-based flow cytometry (reference value: 3.87%); assay type: functional

Eukaryotic translation initiation factor 2-alpha kinase 3 (Homo sapiens), sequence (Q9NZJ5 whole entry): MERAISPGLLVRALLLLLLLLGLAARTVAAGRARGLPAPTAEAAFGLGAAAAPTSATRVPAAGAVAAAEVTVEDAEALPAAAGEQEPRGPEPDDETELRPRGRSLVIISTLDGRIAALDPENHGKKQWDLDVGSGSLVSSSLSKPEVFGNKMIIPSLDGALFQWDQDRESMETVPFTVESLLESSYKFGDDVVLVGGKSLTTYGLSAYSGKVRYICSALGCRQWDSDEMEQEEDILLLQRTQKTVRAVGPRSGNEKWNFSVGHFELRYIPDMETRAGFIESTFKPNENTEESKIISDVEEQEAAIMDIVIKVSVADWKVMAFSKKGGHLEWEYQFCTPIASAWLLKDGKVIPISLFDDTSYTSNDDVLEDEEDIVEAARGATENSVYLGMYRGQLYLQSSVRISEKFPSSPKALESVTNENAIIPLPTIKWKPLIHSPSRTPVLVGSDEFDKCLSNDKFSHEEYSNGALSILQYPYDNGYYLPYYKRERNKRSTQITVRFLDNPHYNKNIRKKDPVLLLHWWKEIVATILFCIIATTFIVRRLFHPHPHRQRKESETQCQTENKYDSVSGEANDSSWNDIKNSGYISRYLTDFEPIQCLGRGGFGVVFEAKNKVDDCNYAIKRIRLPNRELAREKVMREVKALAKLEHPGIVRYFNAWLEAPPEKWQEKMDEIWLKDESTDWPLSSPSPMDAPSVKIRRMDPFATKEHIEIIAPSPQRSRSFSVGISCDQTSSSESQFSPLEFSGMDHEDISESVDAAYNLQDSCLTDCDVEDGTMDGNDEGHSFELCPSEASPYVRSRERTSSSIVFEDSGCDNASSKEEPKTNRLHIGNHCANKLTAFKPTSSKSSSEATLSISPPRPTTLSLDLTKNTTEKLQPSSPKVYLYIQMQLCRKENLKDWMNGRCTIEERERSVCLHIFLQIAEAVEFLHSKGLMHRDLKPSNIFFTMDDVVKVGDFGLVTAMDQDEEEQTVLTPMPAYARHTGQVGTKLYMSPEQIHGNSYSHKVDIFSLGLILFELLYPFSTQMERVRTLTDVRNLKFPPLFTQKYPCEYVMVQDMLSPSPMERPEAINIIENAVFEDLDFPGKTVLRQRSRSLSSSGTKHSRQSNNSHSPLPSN
Ribosomal protein S6 kinase alpha-2 (Homo sapiens), sequence (Q15349 whole entry): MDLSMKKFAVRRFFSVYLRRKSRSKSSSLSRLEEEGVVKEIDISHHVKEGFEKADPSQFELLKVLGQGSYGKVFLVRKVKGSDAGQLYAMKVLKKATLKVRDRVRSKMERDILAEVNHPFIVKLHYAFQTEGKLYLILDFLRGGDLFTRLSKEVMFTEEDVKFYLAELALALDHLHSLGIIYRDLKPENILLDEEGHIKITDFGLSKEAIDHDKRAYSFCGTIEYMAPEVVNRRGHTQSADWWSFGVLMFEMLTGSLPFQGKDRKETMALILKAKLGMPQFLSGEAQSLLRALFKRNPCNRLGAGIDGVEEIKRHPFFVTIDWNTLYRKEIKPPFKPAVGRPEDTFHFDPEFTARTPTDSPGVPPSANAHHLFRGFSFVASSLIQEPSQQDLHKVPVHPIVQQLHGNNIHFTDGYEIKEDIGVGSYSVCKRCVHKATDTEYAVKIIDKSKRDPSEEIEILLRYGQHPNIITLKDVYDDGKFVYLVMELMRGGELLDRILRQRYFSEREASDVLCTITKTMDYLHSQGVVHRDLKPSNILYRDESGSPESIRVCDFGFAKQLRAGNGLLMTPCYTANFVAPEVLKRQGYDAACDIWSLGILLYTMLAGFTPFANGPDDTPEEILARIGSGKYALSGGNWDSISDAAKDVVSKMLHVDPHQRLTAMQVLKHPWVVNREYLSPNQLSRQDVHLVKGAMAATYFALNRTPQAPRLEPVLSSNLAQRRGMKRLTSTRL
TGF-beta receptor type-1 (Homo sapiens), P36897 [T204D], sequence (P36897 whole entry T204D, the tested form may be a part): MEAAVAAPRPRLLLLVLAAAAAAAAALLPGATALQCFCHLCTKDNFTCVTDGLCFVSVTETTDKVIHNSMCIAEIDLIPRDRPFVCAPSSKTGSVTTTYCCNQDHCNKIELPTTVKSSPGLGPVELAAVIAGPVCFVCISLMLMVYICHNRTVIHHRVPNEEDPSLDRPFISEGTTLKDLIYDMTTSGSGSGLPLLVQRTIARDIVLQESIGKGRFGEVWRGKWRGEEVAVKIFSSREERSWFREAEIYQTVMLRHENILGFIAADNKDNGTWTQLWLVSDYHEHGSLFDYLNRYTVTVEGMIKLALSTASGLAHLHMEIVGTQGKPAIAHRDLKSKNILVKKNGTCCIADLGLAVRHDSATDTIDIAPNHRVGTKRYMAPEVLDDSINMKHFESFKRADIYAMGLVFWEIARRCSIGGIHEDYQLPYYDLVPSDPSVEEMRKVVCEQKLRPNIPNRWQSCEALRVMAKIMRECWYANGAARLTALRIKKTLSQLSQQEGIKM
Mitogen-activated protein kinase kinase kinase 5 (Homo sapiens), sequence (Q99683 whole entry, the tested form may be a part): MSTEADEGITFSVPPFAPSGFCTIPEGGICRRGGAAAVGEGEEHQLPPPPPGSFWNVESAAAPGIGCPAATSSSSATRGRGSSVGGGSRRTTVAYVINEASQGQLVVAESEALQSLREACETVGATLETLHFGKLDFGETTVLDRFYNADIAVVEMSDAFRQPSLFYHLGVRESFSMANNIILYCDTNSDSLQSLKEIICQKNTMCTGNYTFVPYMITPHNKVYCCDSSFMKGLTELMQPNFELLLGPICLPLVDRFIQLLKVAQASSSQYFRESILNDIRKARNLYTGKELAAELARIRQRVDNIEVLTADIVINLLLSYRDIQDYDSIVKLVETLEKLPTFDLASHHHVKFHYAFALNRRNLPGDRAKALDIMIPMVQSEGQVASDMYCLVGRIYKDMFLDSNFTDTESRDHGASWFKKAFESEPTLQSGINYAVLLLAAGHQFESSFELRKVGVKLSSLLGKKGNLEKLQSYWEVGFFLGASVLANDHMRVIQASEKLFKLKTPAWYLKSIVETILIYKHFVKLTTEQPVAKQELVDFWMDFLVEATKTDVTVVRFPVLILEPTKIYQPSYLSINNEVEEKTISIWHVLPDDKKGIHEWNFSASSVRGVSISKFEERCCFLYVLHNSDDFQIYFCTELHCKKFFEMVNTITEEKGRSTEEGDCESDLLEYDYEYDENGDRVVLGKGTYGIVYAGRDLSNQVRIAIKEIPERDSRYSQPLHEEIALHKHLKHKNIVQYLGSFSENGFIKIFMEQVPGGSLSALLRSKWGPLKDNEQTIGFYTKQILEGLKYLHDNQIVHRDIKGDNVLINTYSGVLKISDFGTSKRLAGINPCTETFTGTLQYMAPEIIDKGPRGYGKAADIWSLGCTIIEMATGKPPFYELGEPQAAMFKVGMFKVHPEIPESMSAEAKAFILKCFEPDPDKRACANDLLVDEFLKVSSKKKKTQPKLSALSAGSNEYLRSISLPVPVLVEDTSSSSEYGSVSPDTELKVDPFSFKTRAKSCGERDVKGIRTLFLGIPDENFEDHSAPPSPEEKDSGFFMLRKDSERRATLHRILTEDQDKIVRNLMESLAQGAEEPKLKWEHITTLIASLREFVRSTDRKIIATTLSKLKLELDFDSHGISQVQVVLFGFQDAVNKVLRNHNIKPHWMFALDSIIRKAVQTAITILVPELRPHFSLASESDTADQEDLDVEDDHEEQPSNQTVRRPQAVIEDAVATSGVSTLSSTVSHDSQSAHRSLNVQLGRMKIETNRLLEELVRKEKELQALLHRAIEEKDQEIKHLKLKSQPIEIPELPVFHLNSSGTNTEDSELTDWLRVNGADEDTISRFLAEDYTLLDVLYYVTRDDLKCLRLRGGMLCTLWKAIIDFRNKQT
Serine/threonine-protein kinase WNK4 (Homo sapiens), sequence (Q96J92 whole entry): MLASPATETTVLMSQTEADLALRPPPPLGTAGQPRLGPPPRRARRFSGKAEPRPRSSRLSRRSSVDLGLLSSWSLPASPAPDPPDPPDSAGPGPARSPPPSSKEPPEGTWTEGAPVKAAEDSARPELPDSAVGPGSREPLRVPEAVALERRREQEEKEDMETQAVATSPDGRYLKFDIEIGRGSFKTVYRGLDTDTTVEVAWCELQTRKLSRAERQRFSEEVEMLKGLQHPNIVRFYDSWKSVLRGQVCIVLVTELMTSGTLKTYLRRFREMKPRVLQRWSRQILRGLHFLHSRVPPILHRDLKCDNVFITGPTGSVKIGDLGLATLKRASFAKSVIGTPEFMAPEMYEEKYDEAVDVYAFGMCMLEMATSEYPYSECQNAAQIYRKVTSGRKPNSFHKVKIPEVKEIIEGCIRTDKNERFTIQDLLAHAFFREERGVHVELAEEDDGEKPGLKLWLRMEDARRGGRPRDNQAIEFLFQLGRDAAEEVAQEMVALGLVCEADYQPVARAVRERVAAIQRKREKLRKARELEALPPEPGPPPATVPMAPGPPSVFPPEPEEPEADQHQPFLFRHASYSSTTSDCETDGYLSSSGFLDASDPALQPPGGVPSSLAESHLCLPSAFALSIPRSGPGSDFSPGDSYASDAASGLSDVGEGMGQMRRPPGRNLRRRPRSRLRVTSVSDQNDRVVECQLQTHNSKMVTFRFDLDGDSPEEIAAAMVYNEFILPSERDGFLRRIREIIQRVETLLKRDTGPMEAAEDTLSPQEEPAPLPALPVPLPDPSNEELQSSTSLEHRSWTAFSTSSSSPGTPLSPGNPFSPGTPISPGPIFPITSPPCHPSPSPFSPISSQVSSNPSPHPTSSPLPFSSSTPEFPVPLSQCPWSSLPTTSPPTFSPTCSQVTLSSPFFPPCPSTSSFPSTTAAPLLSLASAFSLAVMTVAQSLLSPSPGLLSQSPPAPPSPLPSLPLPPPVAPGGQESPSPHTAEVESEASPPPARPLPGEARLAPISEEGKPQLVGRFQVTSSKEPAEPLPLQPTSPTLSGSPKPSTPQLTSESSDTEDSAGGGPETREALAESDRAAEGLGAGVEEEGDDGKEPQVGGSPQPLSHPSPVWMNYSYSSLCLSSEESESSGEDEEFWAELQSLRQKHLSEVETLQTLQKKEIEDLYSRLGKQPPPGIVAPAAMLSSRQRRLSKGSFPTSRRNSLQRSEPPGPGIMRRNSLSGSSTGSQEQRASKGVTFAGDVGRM
FKBP12A/mTOR (Homo sapiens), sequence (P62942 2-108 limits assumed, other chains not shown): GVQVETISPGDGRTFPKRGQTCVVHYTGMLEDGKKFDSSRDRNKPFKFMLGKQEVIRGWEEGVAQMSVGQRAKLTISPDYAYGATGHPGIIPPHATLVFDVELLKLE

`Cc1cc(C)c(CNc2nc(Cl)nc3c2ncn3C2CCCC2)c(=O)[nH]1` gave an inhibition at 0.05 µM (SW-620 [1]) of 100%, an Activity [2] of 98% and an Activity [3] of 119%. For the same molecule, the Activity [4] was 114%, the Activity [5] was 88.5% and the Activity [6] was 102%. It also gave an Activity [7] of 96.5%, an Activity (Homo sapiens) of 112% and an Activity [8] of 131%. It also gave an Activity [9] of 102%, an Activity [10] of 102% and an Activity [11] of 106%. For the same molecule, the Activity [12] was 99%, the Activity [13] was 109% and the Activity (HCT-116 [14]) was “Active”. The Activity [15] was “Non-Toxic”, the Activity [16] was 122% and the Activity [17] was 116%. It also gave an Activity [18] of 106%, an Activity [19] of 110% and an Activity [20] of 98.5%. For the same molecule, the Activity [21] was 79%, the Activity [22] was 104% and the Activity [23] was “Non-Toxic”. For the same molecule, the Activity (SW-620 [24]) was 9.24% and the Activity (HCT-116 [25]) was 46.2%.
